Activity calls are given as the source filed them. The calls are words filed in the database; no cut-off is given here.
Columns and labels:
Rattus norvegicus [1] = assay: Analgesic effect in po dosed CCI rat model assessed as reduction of thermal hyperalgesia after 1 hr; format: functional
Rattus norvegicus [2] = species: Rattus norvegicus; assay: Inhibition of windup in rat spinal cord at 10 uM; format: functional, organism-based
Mus musculus [3] = assay: Antinociceptive effect in po dosed mouse assessed as reduction of licking time in late phase by formalin test; format: functional
[4] = Oral bioavailability in rat at 3 mg/kg, po; format: ADME, organism-based; conditions: in vivo
[5] = Plasma clearance in rat at 1 mg/kg, iv or 3 mg/kg, po; format: ADME, organism-based
[6] = Half life in dog at 1 mg/kg, iv or 3 mg/kg, po; format: ADME, organism-based, Canis lupus familiaris; conditions: in vivo
[7] = Plasma clearance in dog at 1 mg/kg, iv or 3 mg/kg, po; format: ADME, organism-based, Canis lupus familiaris
[8] = Half life in rat at 1 mg/kg, iv or 3 mg/kg, po; format: ADME, organism-based; conditions: in vivo
Glutamate NMDA receptor = assay: Displacement of [3H]glycine from NMDA receptor in rat cerebral cortex membrane; format: cell membranes
[9] = Oral bioavailability in dog at 3 mg/kg, po; format: ADME, organism-based, Canis lupus familiaris; conditions: in vivo
Mus musculus [10] = assay: Antinociceptive effect in ip dosed mouse assessed as reduction of licking time in early phase administered before 30 mins of formalin administration; conditions: 0.5 h
Mus musculus [11] = assay: Antinociceptive effect in ip dosed mouse assessed as reduction of licking time in late phase administered before 30 mins of formalin administration; conditions: 0.5 h
Mus musculus [12] = assay: Antinociceptive effect in mouse assessed as reduction of licking time in late phase administered at 0.1 mg/kg, ip before 10 mins of formalin administration; format: functional; set-up: scale not given: the % may be the effect or the level left; conditions: route intraperitoneal
[13] = Oral bioavailability in rat; format: ADME, organism-based; conditions: in vivo

SMILES: O=C([O-])[C@H]1C/C(=C2/CCN(c3ccccc3)C2=O)c2ccc(Cl)cc2N1.[Na+]
- ED50 (Rattus norvegicus [1]): 0.14 mg/kg
- Activity (Rattus norvegicus [2]): Active
- ED50 (Mus musculus [3]): 0.14 mg/kg

SMILES: O=C(/C=C1\CC(C(=O)[O-])Nc2cc(Cl)ccc21)Nc1ccccc1.[Na+] (stereo unspecified)
- bioavailability [4]: 85%
- clearance [5]: 0.21 L/h/kg
- half-life [6]: 2.4 h
- clearance [7]: 0.084 L/h/kg
- half-life [8]: 1.4 h
- Log Ki (Glutamate NMDA receptor): -7.42
- bioavailability [9]: 64%

SMILES: CN1CC[C@]23c4c5ccc(O)c4O[C@H]2[C@@H](O)C=C[C@H]3[C@H]1C5 [MORPHINE]
- ED50 (Mus musculus [10]): 0.73 mg/kg
- ED50 (Mus musculus [11]): 0.56 mg/kg

SMILES: C[C@]12N[C@H](Cc3ccccc31)c1ccccc12 [DIZOCILPINE]
- Activity (Mus musculus [12]): 50%
- ED50 (Mus musculus [3]): 0.1 mg/kg

SMILES: O=C([O-])C1C/C(=C2/NC(=O)N(c3ccccc3)C2=O)c2ccc(Cl)cc2N1.[Na+] (stereo unspecified)
- Log Ki (Glutamate NMDA receptor): -7.8

SMILES: O=C([O-])C1C/C(=C2/CC(=O)N(c3ccccc3)C2=O)c2ccc(Cl)cc2N1.[Na+] (stereo unspecified)
- Log Ki (Glutamate NMDA receptor): -5.64

SMILES: O=C([O-])c1[nH]c2cc(Cl)cc(Cl)c2c1/C=C1\CCN(c2ccccc2)C1=O.[Na+]
- Log Ki (Glutamate NMDA receptor): -7.56
- ED50 (Rattus norvegicus [1]): 2.95 mg/kg
- ED50 (Mus musculus [3]): 0.6 mg/kg

SMILES: O=C([O-])C1C/C(=C2/CCCN(c3ccccc3)C2=O)c2ccc(Cl)cc2N1.[Na+] (stereo unspecified)
- Log Ki (Glutamate NMDA receptor): -5.71

SMILES: O=C([O-])C1C/C(=C2/CCN(c3ccccc3)C2=O)c2ccc(Cl)cc2N1.[Na+] (stereo unspecified)
- bioavailability [13]: 76%
